Measured values reported in PMC8780580, “The Neuroactive Steroid Pregnanolone Glutamate: Anticonvulsant Effect, Metabolites and Its Effect on Neurosteroid Levels in Developing Rat Brains” (Pharmaceuticals, 2021).
Counter-ions that a name gives are not always drawn.

Legend:
[1] = Steroidomic (GC-MS/MS) analysis of hippocampal tissue after PA-G administration; conditions: for fold increase in the concentration in the rat hippocampus above the basal levels / percentage of total significantly increased (5β) steroids in the rat hippocampus / concentration at 20 min: 20 min after PA-G i.p., 1 mg/kg in CDX; for increase in concentration compared with basal levels: after PA-G i.p.; for increase in concentration compared with basal levels / concentration at 20 min: 1 mg/kg; for concentration at 20 min: male, Wistar, rat, in vivo, ip, Steroid concentration in hippocampal tissue, PA-G-Treated (P);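 as to all read-outs here: hippocampal steroids quantified by GC-MS/MS, covering free and conjugated forms after hydrolysis, compared against intact rats and rats injected with CDX vehicle alone, five animals per group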
Protocol: In a separate experiment, samples of the hippocampus were obtained from male albino Wistar rats in 6 experimental groups consisting of P12 and P25 animals that were either intact (I), controls (C, i.p. application of a solution of CDX), or in the experimental group (i.p. application of PA-G in a solution of CDX at a dose of 1 mg/kg). Each group consisted of 5 animals. The animals were sacrificed using ether anaesthesia (Penta, Czech Republic) 30 min after administration of the drug. The hippocampi were quickly removed, weighed, and frozen at −80 °C in sterile plastic microvials until analysis.
An amount of 17–100 mg of the hippocampal tissue was minced and then administered into screw-cap tubes. Next, 2 mL of methanol with a mixture of internal standards was added, and the samples were incubated for 1 week in a refrigerator at 4 °C with agitation for 2 min once a day. Afterwards, the extract was transferred into new screw-cap tubes and dried in a vacuum centrifuge at 45 °C. After that, 1 mL of water of chromatographic purity was added, and the samples were further treated as described in our recently published paper [76].
Briefly, the unconjugated steroids were extracted from a testing sample with diethyl-ether, the extract was dried, and the lipids were separated by partitioning between a mixture of methanol with water (4:1, v/v) and pentane. The pentane phase was discarded, and the polar phase was dried and used for further analysis of the unconjugated steroids. Steroid conjugates remaining in the polar residue after diethyl ether were hydrolyzed to their parent hydroxy steroids (unconjugated molecules) and analyzed.

α4β3δ GABAARs = system: α4β3δ GABAARs; design: method as in PMID 15294445; conditions: cited from earlier work
α4β3γ2 GABAARs = system: α4β3γ2 GABAARs; design: method as in PMID 15294445; conditions: at 100 μM; cited from earlier work
[2] = within 0.5 min of uptake; cited from earlier work
GABAARs [3] = system: GABAARs; design: method as in PMID 29886074; conditions: isolated pyramidal neurons of the rat hippocampus, cited from earlier work
NMDARs = conditions: NMDA-induced currents, transfected HEK293 cells; cited from earlier work
[4] = system: pentylenetetrazol-induced seizures; experiment: Pentylenetetrazol (PTZ)-induced seizures in 12- and 25-day-old rats; assay type: in vivo, male Wistar albino rats; conditions: for incidence of generalized seizures (GS): i.p. 20 mg/kg (highest dose tested)
Protocol: Solutions of PA-G and PA-S were administered intraperitoneally at a concentration of 1 mg/mL, and doses of 1, 5, 10, and 20 mg/kg were used. The solutions of zuranolone were administered intraperitoneally at a concentration of 1 mg/mL, and doses of 0.5, 1, 5, and 10 mg/kg were used. Controls were injected with CDX solution in a volume corresponding to the highest dose (i.e., 20 mL/kg). The same control group was used for PA-S and PA-G. Pentylenetetrazol (PTZ, Sigma Aldrich, Gillingham, Dorset, UK) was dissolved in water in a concentration of 50 mg/mL and was administered subcutaneously at a dose of 100 mg/kg 20 min after the administration of PA-G or PA-S. Each age and dose group comprised 8 animals. The rats were placed individually into plexiglass boxes and were then observed for 30 min after PTZ injection. The incidence, severity, and latencies of seizures were assessed. Younger animals were placed on a pad heated to 34 °C, i.e., to the temperature in the nest for the whole duration of the experiment because of immature thermoregulation. Generalized tonic-clonic or clonic seizures with a loss of righting reflexes were present after a dose of 100 mg/kg of PTZ in all control animals in both age groups. […] The severity of seizures was quantified using a five-point scale as follows: 0—no changes; 0.5—abnormal behaviour (e.g., automatisms, increased orienting reaction); 1—isolated myoclonic jerks; 2—atypical or prolonged minimal seizures; 3—clonic seizures (mS) involving head and forelimb muscles with preserved righting reflexes (older-term minimal pentetrazol seizures); 4—generalized seizures without the tonic phase (GCS); 5—complete generalized tonic-clonic seizures (GTCS).

postpartum depression = system: postpartum depression; design: method as in PMID 34190962; conditions: women with postpartum depression, Phase 3 clinical trial; cited from earlier work
GABAARs [5] = conditions: allosteric displacement of [35S]-TBPS from the picrotoxin binding site on GABAARs; cited from earlier work
[6] = P12 rats, i.p. doses of 5 and 10 mg/kg

SMILES: CC(=O)[C@@]1(O)CCC2C3CC[C@@H]4C[C@H](O)CC[C@]4(C)C3CC[C@@]21C (stereo partly shown) [17-OH-PA, 17-hydroxy-pregnanolone]
- proportion of the brain's 5β-steroids in the tissue ([1]; 20 min after PA-G administration): about three-quarters
- fold increase in the concentration in the rat hippocampus above the basal levels ([1]; P12): 562 x
- percentage of total significantly increased (5β) steroids in the rat hippocampus ([1]; P12): 73.7%
- increase in concentration compared with basal levels ([1]; P12 animals): up to 560 fold
- metabolite of PA-G identified in hippocampus ([1]; P12 vs. P25 animals, 20 min after PA-G administration): major metabolite
- fold increase in the concentration in the rat hippocampus above the basal levels ([1]; P25): 35.8 x
- percentage of total significantly increased (5β) steroids in the rat hippocampus ([1]; P25): 75.9%
- increase in concentration compared with basal levels ([1]; P25 animals): 36 fold
- concentration at 20 min ([1]; 12-day-old rats): 518 ng/g
- concentration at 20 min ([1]; 25-day-old rats): 40.8 ng/g
- maximum efficacy (α4β3δ GABAARs): 57%
- EC50 (α4β3δ GABAARs; read-out: EC50 (potentiation of responses)): 3.5 µM
- greatest response (α4β3γ2 GABAARs): 20%

SMILES: C[C@]12CC[C@H](O)CC1=CC[C@@H]1[C@@H]2CC[C@]2(C)C(=O)CC[C@@H]12 [Dehydroepiandrosterone (DHEA), dehydroepiandrosterone]
- concentration at 20 min ([1]; 12-day-old rats): 1.13 ng/g
- concentration at 20 min ([1]; 25-day-old rats): 0.644 ng/g

SMILES: C[C@]12CC[C@H](OS(=O)(=O)O)CC1=CC[C@@H]1[C@@H]2CC[C@]2(C)C(=O)CC[C@@H]12 [Dehydroepiandrosterone sulfate (DHEA-S), 17-oxo-androst-5-en-3β-yl 3-sulfate]
- concentration at 20 min ([1]; 12-day-old rats): 4.86 ng/g
- concentration at 20 min ([1]; 25-day-old rats): 1.52 ng/g
- desulfation [2]: > 50%

SMILES: C[C@]12CC[C@@H](O)C[C@H]1CC[C@@H]1[C@@H]2CC[C@]2(C)C(=O)CC[C@@H]12 [Etiocholanolone (ETIO), etiocholanolone]
- percentage of total significantly increased (5β) steroids in the rat hippocampus ([1]; P12): 0.1%
- increase in concentration compared with basal levels ([1]; P12 animals): ~12 fold
- percentage of total significantly increased (5β) steroids in the rat hippocampus ([1]; P25): 0.08%
- increase in concentration compared with basal levels ([1]; P25 animals): ~2 fold

SMILES: CC(=O)[C@H]1CC[C@H]2[C@@H]3CC[C@@H]4C[C@H](O)CC[C@]4(C)[C@H]3CC[C@]12C [PA, pregnanolone]
- fold increase in the concentration in the rat hippocampus above the basal levels ([1]; P12): 272 x
- percentage of total significantly increased (5β) steroids in the rat hippocampus ([1]; P12): 9.47%
- increase in concentration compared with basal levels ([1]; P12 animals): up to 272 fold
- fold increase in the concentration in the rat hippocampus above the basal levels ([1]; P25): 12.8 x
- percentage of total significantly increased (5β) steroids in the rat hippocampus ([1]; P25): 9.30%
- concentration at 20 min ([1]; 12-day-old rats): 63.6 ng/g
- concentration at 20 min ([1]; 25-day-old rats): 5.02 ng/g
- percentage of the brain's total 5β-steroids in the hippocampus after PA-G administration ([1]; stated over P12 and P25 animals, 20 min after PA-G): approximately 10%

SMILES: CC(=O)[C@H]1CCC2C3CC[C@@H]4C[C@H](OC(=O)[C@@H](N)CCC(=O)O)CC[C@]4(C)C3CC[C@@]21C (stereo partly drawn) [PA-G, 20-oxo-5β-pregnan-3α-yl L-glutamyl 1-ester]
- maximum potentiation of IGABA peak amplitude (GABAARs [3]): up to 422%
- EC50 (GABAARs [3]; read-out: EC50 (increase of IGABA peak)): 7 µM
- fold increase in the concentration in the rat hippocampus above the basal levels ([1]; P12): 199 x
- percentage of total significantly increased (5β) steroids in the rat hippocampus ([1]; P12): 6.04%
- fold increase in the concentration in the rat hippocampus above the basal levels ([1]; P25): 9.76 x
- percentage of total significantly increased (5β) steroids in the rat hippocampus ([1]; P25): 10.8%
- IC50 (NMDARs): 73 µM
- latencies of GS ([4]; P12 rats, Kruskal-Wallis over dose groups): increase in the latencies of GS
- incidence of generalized seizures (GS) ([4]; P12 rats): prevented the development of GS in all animals
- seizure severity ([4]; P12 rats, i.p. 1, 5, 10, 20 mg/kg, Kruskal-Wallis over dose groups): suppressed seizure severity
- tonic phase (TP) of GTCS [4, 6]: completely abolished TP
- seizure severity ([4]; P25 rats, Kruskal-Wallis over dose groups): affected seizure severity
- latencies of GS ([4]; P25 rats, i.p. 10 mg/kg): prolonged
- incidence of GTCS ([4]; P25 rats, i.p. 20 mg/kg): completely suppressed these seizures
- seizure severity (score) ([4]; P25 rats, i.p. 20 mg/kg): decreased score

SMILES: CC(=O)[C@H]1CC[C@H]2[C@@H]3CC[C@@H]4C[C@H](OS(=O)(=O)O)CC[C@]4(C)[C@H]3CC[C@]12C [PA-S, pyridinium 20-oxo-5β-pregnan-3α-yl sulfate]
- IC50 (NMDARs): 24 µM
- incidence of generalized seizures (GS) ([4]; P12 rats): completely eliminated GS
- seizure severity ([4]; P12 rats, i.p. doses of 5 mg/kg and higher, 20 min before PTZ 100 mg/kg s.c.): significant decrease in seizure severity
- latencies of GS [4, 6]: significantly prolonged the latencies of GS
- tonic phase (TP) of GTCS [4, 6]: completely abolished TP
- parameters of minimal seizures (mS) ([4]; P25 rats): did not affect any parameters of mS
- tonic phase (TF) of GTCS ([4]; P25 rats): did not exhibit specific effects against the TF of GTCS
- incidence of GS ([4]; P25 rats, chi2 test over dose groups, Fisher's tests no differences between individual groups): affected the incidence of GS
- seizure severity (score) ([4]; P25 rats, i.p. 20 mg/kg): lower score

SMILES: CC(=O)[C@H]1CCC2C3CC=C4C[C@@H](O)CC[C@]4(C)C3CC[C@@]21C (stereo partly shown) [Pregnenolone (PE), pregnenolone]
- concentration at 20 min ([1]; 12-day-old rats): 4.69 ng/g
- concentration at 20 min ([1]; 25-day-old rats): 3.44 ng/g

SMILES: C[C@@]1(O)CC[C@H]2[C@H](CC[C@@H]3[C@@H]2CC[C@]2(C)[C@@H](C(=O)Cn4cc(C#N)cn4)CC[C@@H]32)C1 [zuranolone]
- symptoms of depression (postpartum depression): improved the symptoms of depression
- IC50 (GABAARs [5]): 0.007 µM
- development of GS [4, 6]: abolished
- seizure severity [4, 6]: significant decrease in seizure severity
- latencies of mS ([4]; P25 rats): increase in the latencies of mS
- development of GS ([4]; P25 rats, all tested doses (0.5, 1, 5, 10 mg/kg i.p.)): completely suppressed development of GS
- seizure severity ([4]; P25 rats, i.p. dose of only 1 mg/kg): significantly decreased seizure severity
- development of mS ([4]; P25 rats, i.p. doses of 5 and 10 mg/kg): suppressed the development of mS
